Measurements: patent US6489329B2, “Pharmaceutical compositions for the treatment of rhinitis” (UCB S.A., priority 1996, dated 2002)
Where a name gives a salt, the structure may show the parent alone.

What was measured:
[1] = tested on: patients suffering from perennial allergic rhinitis; assay: phase III multicenter double-blind 3-week study in perennial allergic rhinitis; assay type: in vivo, human; details: for Mean of maximal 5-symptom scores, Visit 2: control visit one week after visit 1, investigators' 4-point scale 0-3; for global evaluation by the investigators: patients in categories "Good improvement" and "No more symptoms", grouped: end of treatment (visit 3), capsule morning and evening, 5-point scale; for Mean of maximal 5-symptom scores, Visit 1: enrolment visit, investigators' 4-point scale 0-3; for PDS0 (percentage of days with a maximal symptom score equal to 0), mean / PDS1 (percentage of days with a maximal symptom score inferior or equal to 1), mean: patients' daily record card, five symptoms, 3-week study
Procedure: (§1) The efficacy and safety of a composition of the invention were evaluated for the treatment of rhinitis, especially perennial and seasonal rhinitis, by the following phase III multicenter, double-blind studies. The composition of the invention was compared to:
(§2) For each study, patients enrolled were ranged in three therapeutic groups and were treated as follows:
(§3) The patients' clinical evaluations made by the investigators at the end of the studies were based on a 5-point scale (0=worsening; 1=no change; 2=slight improvement; 3=good improvement; 4=no more symptoms). The Cochran-Mantel-Haenszel test was used to compare the frequency distribution of the three groups, and for specific comparisons.
(§4) At home, patients had to fill a daily record card where the five following symptoms were evaluated: sneezing, runny nose, blocked nose, itchy nose and itchy eyes. The symptoms scores were based on a 4-point scale (0: absent; 1: mild; 2: moderate; 3: severe). […] Global comparisons were made using the Kruskal-Wallis test and specific comparisons were made with the Wilcoxon rank sum test.
(§5) Three visits were planned during the study: enrolment visit (Visit 1), control visit (Visit 2) one week after visit 1 and final visit (Visit 3). At visits 1 and 2, investigators evaluated the specific symptoms of allergic rhinitis (sneezing, rhinorrhea, nasal obstruction, nasal pruritus and ocular pruritus) using the 4-point scale (0: absent; 1: mild; 2: moderate; 3: severe). The rhinitis severity was evaluated by taking into account the maximal score of the five symptoms. The three groups were compared using the Cochran-Mantel-Haenszel test based on ranks.
(§6) The patients were asked about possible adverse events at each control visit. In each treatment group, adverse events were counted and grouped in classes. The frequency distributions of these adverse effect numbers were compared using the Cochran-Mantel-Haenszel test.
A total of 554 patients were enrolled in this 3-week study. These patients ranged in age from 12 to 67 years old. They had to suffer from perennial allergic rhinitis diagnosed at least one year prior to the study, with radio allergosorbent test (RAST) or prick-test positive to perennial allergens including dust, mites and/or animal danders. On enrolment day, patients had to have the following symptoms: nasal obstruction, sneezing and rhinorrhea.

[2] = tested on: patients suffering from pollen-associated allergic rhinitis; assay: phase III multicenter double-blind 2-week study in pollen-associated (seasonal) allergic rhinitis; assay type: in vivo, human; details: for Incidence of asthenia / Incidence of headache / Incidence of insomnia / Incidence of somnolence / proportion of patients with at least one adverse effect / PDS0 (percentage of days with a maximal symptom score equal to 0), mean / PDS1 (percentage of days with a maximal symptom score inferior or equal to 1), mean: 2-week study; for Mean of maximal 5-symptom scores, Visit 2: control visit one week after visit 1, investigators' 4-point scale 0-3; for global evaluation: patients in categories "Good improvement" and "No more symptoms", grouped: end of 2-week study, capsule morning and evening, 5-point scale; for Mean of maximal 5-symptom scores, Visit 1: enrolment visit, investigators' 4-point scale 0-3; for PDS0 (percentage of days with a maximal symptom score equal to 0), mean / PDS1 (percentage of days with a maximal symptom score inferior or equal to 1), mean: maximal score of five symptoms
Procedure: as §1, §2, §3, §4, §5, §6
A total of 687 patients enrolled in this 2-week study, their ages ranging from 12 to 67 years. They had to be suffering from pollen-associated allergic rhinitis, with a prick-test or a RAST positive to pollen. […] On enrolment day, the patients had to be experiencing nasal obstruction and at least two of the four following symptoms: sneezing, rhinorrhea, nasal pruritus, ocular pruritus.

| Structure (SMILES) | sedation, frequency of adverse event ([1]; comparison between the three groups) | Mean of maximal 5-symptom scores, Visit 2 [1] | global evaluation by the investigators: patients in categories "Good improvement" and "No more symptoms", grouped [1] | Mean of maximal 5-symptom scores, Visit 1 [1] | PDS0 (percentage of days with a maximal symptom score equal to 0), mean [1] | PDS1 (percentage of days with a maximal symptom score inferior or equal to 1), mean [1] | Incidence of asthenia [2] | Incidence of headache [2] | Incidence of insomnia [2] | Incidence of somnolence [2] | proportion of patients with at least one adverse effect [2] | Mean of maximal 5-symptom scores, Visit 2 [2] | global evaluation: patients in categories "Good improvement" and "No more symptoms", grouped [2] | Mean of maximal 5-symptom scores, Visit 1 [2] | PDS0 (percentage of days with a maximal symptom score equal to 0), mean [2] | PDS1 (percentage of days with a maximal symptom score inferior or equal to 1), mean [2] |
| --- | --- | --- | --- | --- | --- | --- | --- | --- | --- | --- | --- | --- | --- | --- | --- | --- |
| O=C(O)COCCN1CCN(C(c2ccccc2)c2ccc(Cl)cc2)CC1 (racemic) [Cetirizine, 2-[2-[4-[(4-chlorophenyl)phenylmethyl]-1-piperazinyl]ethoxy]-acetic dihydrochloride] | more frequent | 1.82 | 46% | 2.66 | 6.60% | 43.26% | 4% | 4% | 0% | 6% | 23% | 1.76 | 56% | 2.77 | 6.41% | 39.81% |
| CN[C@@H](C)[C@@H](O)c1ccccc1.Cl [Pseudoephedrine, (1S,2S)2-methylamino-1-phenylpropan-1-ol hydrochloride] |  | 1.81 | 48% | 2.72 | 6.97% | 41.57% | 1% | 7% | 8.5% | 3% | 30% | 1.82 | 58% | 2.78 | 5.44% | 37.21% |
